In patent US20230405130A1, “COMPOSITIONS AND METHODS FOR MODIFYING BACTERIAL GENE EXPRESSION” (priority 2020, published 2023):

Legend:
dnaE = dnaE expression after anti-dnaE oligonucleotide treatment (immunoblotting); assay type: cell-based, C. difficile; conditions: FIG. 2
Description: Studies were performed to identify C. difficile gene targets with the least pathway redundancy, while ensuring ASO specificity (oligonucleotides ≥25 bp in length). […] Five candidate C. difficile gene targets were identified, and dnaE (which encodes the alpha subunit of DNA polymerase III, and is invariant in C. difficile strains) harbored the most favorable translation inhibition potential (confirmed via immunoblotting; FIG. 2). Thus, it was used in further experiments. Specifically, the ASO formulation is a 2′-O-methyl phosphorothioate (PTO) gapmer, which has a good safety record (Shen et al., Antisense Nucleic Acid Drug Dev. 2001 August; 11(4):257-64; Chen et al., Transplantation. 2005 Feb. 27; 79(4):401-8; Nomura et al., Int J Pharm. 2018 Aug. 25; 547(1-2):556-562.).

[1] = tested on: Ribotype 027 C. difficile strain; assay: In vitro anti-C. difficile activity / MIC; assay type: cell-based; conditions: FIG. 3 legend
Description: (§1) Nanocomplex CAB-964 was complexed to the anti-dnaE ASO (SEQ ID NO:1) as previously described (Hegarty et al., Int J Nanomedicine. 2016 Aug. 1; 11:3607-19; Sharma et al., J Antibiot (Tokyo). 2018 August; 71(8):713-721; herein incorporated by reference in its entirety) and the resulting nanocomplex is called SRPNT. Multiple in vitro tests were performed with SRPNT as well as its parent empty CAB, with CAB CYDE-21 and its derived nanocomplex as comparators. For the pathogen (Hegarty 2016, supra; Sharma 2018, supra) a whole genome-sequenced Ribotype 027 C. difficile strain associated with severe, complicated CDI in human subjects was used.

E. coli = assay: In vitro growth of commensal bacteria: E. coli; assay type: cell-based; conditions: only at >17× the dosing range to treat C. difficile
Description: as §1

E. faecalis = assay: In vitro growth of commensal bacteria: E. faecalis; assay type: cell-based; conditions: only at >17× the dosing range to treat C. difficile
Description: as §1

B. fragilis = assay: In vitro growth of commensal bacteria: B. fragilis; assay type: cell-based; conditions: only at >17× the dosing range to treat C. difficile
Description: as §1

[2] = tested on: cultured human intestinal epithelial cells; assay: Toxicity to cultured human intestinal epithelial cells; assay type: cell-based; conditions: at the doses used for C. difficile inhibition
Water solubility = assay type: physicochemical; conditions: room temperature

Compound | dnaE expression (dnaE) | anti-C. difficile activity [1] | growth reduction of E. coli (E. coli) [%] | growth reduction of E. faecalis (E. faecalis) [%] | growth reduction of B. fragilis (B. fragilis) [%] | toxicity to cultured human intestinal epithelial cells [2] | solubility (Water solubility) [mg/mL]
5′-G*T*T*C*A*T*TAAA TCACC TCC T*G*C*T*T*T*A3′ (GTTCATTAAATCACCTCCTGCTTT; listed as DNA, chemistry not fully specified) [anti-dnaE oligonucleotide, 2′-O-methyl phosphorothioate (PTO) gapmer ASO targeting dnaE] | decreases dnaE expression | – | – | – | – | – | –
c1cc2c([n+](CCCCCCCCCC[n+]3cccc4c3CCCC4)c1)CCCC2 [CAB-964] | – | no anti-C. difficile activity | 7 | 7 | 7 | non-toxic | 26
